Converted amounts (≈) assume the structure as drawn. Like-named read-outs stand apart in the source and are kept apart here.
Assays:
[1] = test system: Staphylococcus aureus (ATCC 25923); assay: Antibacterial MIC, S. aureus; type: cell-based; conditions: Mueller Hinton Broth, 37 °C, 18 h
Description: (§1) Escherichia coli (ATCC 25922) was used as Gram-negative strain and Staphylococcus aureus (ATCC 25923, methicillin-resistant (MRSA) ATCC 43300) strains were applied as Gram-positive bacterial cultures in the experiments. MIC values of the compounds were determined in 96-well plates based on the Clinical and Laboratory Standard Institute guidelines (CLSI guidelines).[76] The stock solutions of the compounds (same as those used for cytotoxicity experiments) were diluted in 100 μL of Mueller Hinton Broth. Then, 10^–4 dilution of an overnight bacterial culture in 100 μL of medium was added to each well, with the exception of the medium control wells.

[2] = pKa of the ligands by 1H NMR titration; type: physicochemical; conditions: 0.20 M KNO3 with 10% (v/v) D2O, I = 0.20 M KNO3, 25.0 °C, read-out: pKa (OH)
Description: (§2) Physico-chemical properties such as aqueous solubility, lipophilicity, and the actual protonation state at a given pH are known to influence the pharmacokinetic behavior of a drug.
(§3) Bruker Avance III HD Ascend 500 Plus instrument (Billerica, MA, USA) was used for NMR studies. ^1H NMR spectroscopic measurements were carried out with a WATERGATE water suppression pulse scheme in the presence of 10% (v/v) D2O in most cases. DSS internal standard was added to samples to obtain reference peaks. ^1H NMR titrations were carried out in the presence of 0.20 M KNO3. The computer program HypSpec[64] was used to obtain equilibrium constants.

A431 = test system: A431; design: method as in earlier work; conditions: monoculture, 72 h, PrestoBlue; ref SI3; cited from earlier work
[3] = molecular target: human serum albumin (HSA), Trp214 / site I (Homo sapiens, UniProt P02768); assay: HSA Trp214 fluorescence quenching
human serum albumin (HSA), Trp214 / site I, sequence (P02768 25-609): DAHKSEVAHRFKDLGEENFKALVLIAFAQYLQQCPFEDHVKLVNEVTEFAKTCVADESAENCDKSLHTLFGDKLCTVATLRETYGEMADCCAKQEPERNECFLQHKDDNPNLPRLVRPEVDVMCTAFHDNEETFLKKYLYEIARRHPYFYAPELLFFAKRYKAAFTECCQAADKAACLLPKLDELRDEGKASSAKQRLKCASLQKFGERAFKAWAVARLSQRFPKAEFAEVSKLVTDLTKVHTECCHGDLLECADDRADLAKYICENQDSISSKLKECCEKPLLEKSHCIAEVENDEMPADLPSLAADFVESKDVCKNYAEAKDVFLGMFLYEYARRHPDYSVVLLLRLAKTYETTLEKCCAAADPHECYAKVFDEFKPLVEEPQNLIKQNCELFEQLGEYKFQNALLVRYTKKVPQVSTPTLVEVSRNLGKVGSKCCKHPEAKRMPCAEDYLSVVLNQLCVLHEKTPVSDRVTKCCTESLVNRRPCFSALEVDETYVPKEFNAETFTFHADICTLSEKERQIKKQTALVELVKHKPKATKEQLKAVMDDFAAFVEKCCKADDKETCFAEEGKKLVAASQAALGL
Description: (§6) Next, spectrofluorometric measurements were also performed to gain insight into the binding interactions that may occur in the hydrophobic binding sites of HSA. Tryptophan (Trp214) quenching experiments were conducted for the complexes (1–4) (for complex (3) see Figure S31) and their ligands). […] To monitor the binding at site II, site marker displacement experiments were performed using dansylglycine (DG).
(§7) Fluorescence measurements were carried out on a Fluoromax (Horiba Jobin Yvon, Longjumeau, France) spectrofluorometer using a 1 cm × 1 cm quartz cuvette. […] Excitation wavelengths were 295 nm for Trp-214 quenching and 340 nm for the DG displacement studies. The calculated conditional stability constants for HSA–complex species were obtained using the computer program HypSpec.[64] Calculations always were based on data obtained from at least two independent measurements.

Colo320 = assay: Cytotoxicity, Colo320; type: cell-based, human; conditions: this work
Source text: Supplementary Information
(11 pictures or pasted objects on this page, not shown here)

MES-SA/Dx5 [4] = conditions: monoculture, ref SI3, cited from earlier work
[5] = test system: Escherichia coli (ATCC 25922); assay: Antibacterial MIC, E. coli; type: cell-based; conditions: Mueller Hinton Broth, 37 °C, 18 h
Description: as §1

[6] = test system: methicillin-resistant S. aureus (MRSA) ATCC 43300; assay: Antibacterial MIC, MRSA; type: cell-based, Staphylococcus aureus; conditions: Mueller Hinton Broth, 37 °C, 18 h
Description: as §1

[7] = n-octanol/water distribution coefficient (shake-flask); type: physicochemical; conditions: pH 7.4
Description: The exchange of the coligand (H2O/Cl^–) changes the overall charge of the complex, thus affecting lipophilicity. […] The traditional shake-flask method was used to obtain distribution coefficients of the ligands as well as of the complexes in n-octanol/buffered aqueous solution (20 mM phosphate, pH = 7.4) at different chloride ion concentrations (4, 24, and 100 mM) using UV–vis spectrophotometry (Agilent Cary 8454 diode array spectrophotometer, Santa Clara, CA, USA) for the analysis. The compounds were dissolved in buffered aqueous solutions previously saturated with n-octanol. Then the aqueous and n-octanol phases were gently mixed in different volume ratios (using 1:60 for the ligands, 1:1 for the RhCp* and 1:2 for the RuCym complexes ratios of n-octanol to buffered aqueous solution volume) for 4 h, followed by phase separation. Then the UV–vis spectrum of the aqueous or n-octanol phase was recorded and compared to the reference spectrum. Stock solutions were made in the aqueous phase, and distribution coefficients (DpH) were calculated by the following equation: [drawing 3]

[8] = molecular target: human serum albumin (HSA), site II (Homo sapiens, UniProt P02768); assay: HSA dansylglycine (DG) site marker displacement
human serum albumin (HSA), site II, sequence (P02768 25-609): as above
Description: as §6, §7

MES-SA [9] = conditions: monoculture, PrestoBlue; ref SI3; cited from earlier work
A431-B1 = test system: A431-B1; design: method as in earlier work; conditions: monoculture, ref SI3, cited from earlier work
[10] = Thermodynamic aqueous solubility at pH 7.4; type: physicochemical; conditions: 10 mM HEPES buffer, thermodynamic from solid, pH 7.4 (10 mM HEPES), 25.0 °C, read-out: thermodynamic aqueous solubility S7.4
Description: The concentration of the compounds was determined by UV–vis spectrophotometry. For calibration, stock solutions of the compounds were used with known concentrations dissolved in 100% DMSO, 75% DMSO, and 50% (v/v) DMSO/buffered aqueous solutions.

[11] = pKa of the ligands by UV–vis titration; type: physicochemical; conditions: for pKa: 0.20 M KNO3, UV–vis, I = 0.20 M KNO3, 10 equiv. EDTA
Description: as §2
(§4) An Agilent Cary 8454 diode array spectrophotometer was utilized to obtain UV–vis spectra in the wavelength range 190–1100 nm. The path length (l) was 1 or 2 cm in most cases (the actual l is always indicated in the legends of the figures). The concentrations of the ligands and complexes were between 36 and 100 μM. The ligands were titrated in the presence of 10 equiv of EDTA. Individual samples contained 0–37 μM HSA, 0–206 μM MIM, 0–759 μM AHA, or 0–733 μM FHA. Spectra were always background and baseline corrected. The computer program HypSpec[64] was used to obtain stability constants.

MES-SA [12] = assay: Cytotoxicity in double coculture, MES-SA mCherry; conditions: read-out: IC50 MES-SA; double coculture with MES-SA/Dx5; 144 h; without TQ
Description: Therefore, the novel half-sandwich complexes (1–4) and their corresponding ligands were tested against a coculture of MES-SA and MES-SA/Dx5 cells expressing the fluorescent proteins mCherry or eGFP, respectively.[62]
MES-SA/B1 is a human MDR1-transfected derivative of MES-SA, and MES-SA mCherry, MES-SA/B1 mOrange, and MES-SA/Dx5 eGFP were engineered to stably express the respective fluorescent proteins previously.[62] Cells were kept in culture medium (DMEM) supplemented with 10% fetal bovine serum, 2 mM L-glutamine, 100 units/mL penicillin, and 100 μg/mL streptomycin (Thermo Fisher). One week before use, MES-SA/Dx5 eGFP cells were treated with 0.5 μM doxorubicin to ensure ABCB1/P-gp expression.
The tested compounds were dissolved in 50% (v/v) DMSO/PBS’ buffer to prepare 5–10 mM stock solutions, which were diluted in complete culture medium. Constitutive expression of the fluorescent proteins allowed multiplexing in cytotoxicity experiments.[62] […] Serial dilutions of the compounds were added 24 h after seeding. To address the effect of P-gp function, TQ was added at a nontoxic concentration (0.4 μM) 15 min before the test compounds. […] IC50 values and standard deviation were calculated from average pIC50 values from at least 3 independent measurements.

[13] = pKa of in situ prepared complexes by pH-potentiometry; type: physicochemical; conditions: I = 0.20 M KNO3
Source text: (§5) The results, shown in Table 2, indicate good agreement between the data obtained by the different methods. It should be noted that these processes show overlap in all cases, and therefore, the assignment of the pKa values to the given moieties cannot be made reliably. However, by comparing the spectral changes with those observed for HQ and other simple derivatives,[25] it can be concluded that the lower pKa likely belongs to the deprotonation of the aqua coligand.
The pH-potentiometric measurements were carried out at 25.0 ± 0.1 °C in water in the pH range between 2.0 and 11.5 and at a constant ionic strength of 0.20 M KNO3. The titrations were performed in a carbonate-free KOH solution (0.20 M). The exact concentrations of the HNO3 and KOH solutions were determined by pH-potentiometric titrations. An Orion 710A pH-meter equipped with a Metrohm combined electrode (type 6.0234.100) and a Metrohm 665 Dosimat buret were used for this purpose. […] The average water ionization constant, pKw, was determined as 13.76 ± 0.01, which is in good agreement with the literature data.[67] The initial volume of the samples was 10.0 mL. […] Samples were degassed by bubbling purified argon through them for about 10 min prior to the measurements, and the inert gas was also passed over the solutions during the titrations. The computer program Hyperquad2013[64] was utilized to establish the stoichiometry of the species and to calculate the equilibrium constants.

[14] = pKa of in situ prepared complexes by 1H NMR titration; type: physicochemical; conditions: 1:1 system, I = 0.20 M KNO3
Source text: as §5, §3

[15] = H2O/Cl– coligand exchange by UV–vis titration with chloride ions; type: physicochemical; conditions: RuCym complexes titrated at pH 6.0
Description: When the isolated complexes (1–4) are dissolved in water, their chlorido coligand can be replaced by water, or vice versa in the aqua complexes [M(arene)(HL)(H2O)]^2+, the H2O → Cl^– exchange process can take place in the presence of chloride ions. The chloride ion affinity of the complexes was also investigated by UV–vis spectrophotometry. RhCp* and RuCym complexes were titrated with chloride ions at pH 7.4 and 6.0, respectively. For this experiment, pH values were chosen at which the formation of the mixed hydroxido species is negligible. A representative spectrum series for complex (4) is shown in Figure S27, and the calculated conditional exchange constants (logK’ (H2O/Cl^–)) are given in Table 2 and in Figure S23. […] The complexes of the amino acid hybrids HQCl-D-Pro and HQCl-D-hPro have lower logK’ (H2O/Cl^–) constants most likely due to the repulsive effect of the nearby COO^– group.[26]

MES-SA/Dx5 [16] = assay: Cytotoxicity in double coculture, MES-SA/Dx5 eGFP; conditions: for SR = IC50 (MES-SA)/IC50 (MES-SA/Dx5): double coculture
[17] = pKa of in situ prepared complexes by UV–vis titration; type: physicochemical; conditions: 1:1 system, absence of chloride, I = 0.20 M KNO3
Source text: The UV–vis spectra of the complexes prepared in situ were then followed at different pH values in the absence of chloride ions. No spectral changes were observed between pH = 2–6.3 (RuCym) or 7.5 (RhCp*), indicating high solution stability in both cases; however, the changes were significant in the basic pH range (Figure S22). In the case of RuCym complexes, two overlapping processes associated with the deprotonation of the coordinated water molecule and the noncoordinated Npyr/pipH^+ moiety were observed. […] The pKa values determined for these processes are shown in Table 2 and Figure S23 together with the values obtained for complexes formed with the amino acid hybrids HQCl-D-Pro and HQCl-D-hPro (Chart 2) for comparison.[26]
as §4

[18] = pH 7.4, based on the pKa values

Oc1c(CN2CCCC2)cc(Cl)c2cccnc12 [HQCl-pyr, 5-chloro-7-(pyrrolidin-1-ylmethyl)quinolin-8-ol]
MIC ([1]; Staphylococcus aureus, ATCC25923): 50 µM (≈ 13.1 µg/mL) | pKa [2]: 7.65 ± 0.02 | IC50 (A431): 7.45 ± 0.15 µM | Kd [3]: 25.1 µM | SR (Colo205 / Colo320) (Colo320): 2.0 | IC50 (MES-SA/Dx5 [4]; PrestoBlue): 0.3 ± 0.06 µM | SR (MES-SA / MES-SA/Dx5) (MES-SA/Dx5 [4]; + 1 µM TQ): 1.35 | SR (MES-SA / MES-SA/Dx5) (MES-SA/Dx5 [4]): 11.53 | MIC ([5]; Escherichia coli, ATCC25922): 50 µM (≈ 13.1 µg/mL) | MIC ([6]; Staphylococcus aureus): 50 µM (≈ 13.1 µg/mL) | logD at 4 h ([7]; n-octanol/buffered aqueous solution, n-octanol/H2O, read-out: log D7.4): 1.83 | Kd [8]: 12.6 µM | IC50 (MES-SA [9]): 3.46 ± 0.51 µM | IC50 (A431-B1; 72 h, PrestoBlue): 1.97 ± 0.25 µM | SR (A431 / A431-B1) (A431-B1): 3.79 | solubility thermodynamic [10]: 516 ± 2 µM (≈ 136 µg/mL) | pKa ([11]; read-out: pKa (Npyr/pipH+)): 11.36 ± 0.1 | pKa ([11]; read-out: pKa (NqH+)): < 2 | pKa ([11]; read-out: pKa (OH)): 7.53 ± 0.05 | fraction of H2L+ [11, 18]: 51% | fraction of HL [11, 18]: 49%

[RuCym(HQCl-Pip)Cl]Cl [(4)]
IC50 (MES-SA [12]): 3.46 µM | MIC [1]: > 100 µM | pKa (H2O) [13]: 8.43 ± 0.08 | pKa (Npyr/pipH+) [13]: 10.07 ± 0.07 | logK’(quenching) ([3]; 1 μM HSA, λEX = 295 nm (Trp-214), pH 7.4 (PBS’), […], 24 h): 5.4 ± 0.2 | pKa (H2O) [14]: 8.50 ± 0.02 | pKa (Npyr/pipH+) [14]: 10.19 ± 0.02 | logK’ (H2O/Cl–) [15]: 1.78 ± 0.02 | MIC [5]: > 100 µM | MIC [6]: > 100 µM | logD7.4 ([7]; c(Cl–) = 4 mM): +0.35 ± 0.02 | logD7.4 ([7]; c(Cl–) = 24 mM): +0.72 ± 0.02 | logD7.4 ([7]; c(Cl–) = 100 mM): +0.89 ± 0.02 | logK’(DG) ([8]; cHSA = cDG = 1 μM, λEX = 335 nm (DG), pH 7.4 (PBS’), […], 24 h): 5.3 ± 0.1 | SR = IC50 (MES-SA)/IC50 (MES-SA/Dx5) (MES-SA/Dx5 [16]; + 0.4 μM tariquidar (TQ)): 0.2 | SR = IC50 (MES-SA)/IC50 (MES-SA/Dx5) (MES-SA/Dx5 [16]; without TQ): 1.8 | IC50 (MES-SA/Dx5 [16]; read-out: IC50 MES-SA/Dx5, double coculture with MES-SA, 144 h, without TQ): 1.92 µM | pKa (H2O) [17]: 8.39 ± 0.10 | pKa (Npyr/pipH+) [17]: 10.06 ± 0.05
